Measurements from patent US10722484B2, “Methods of cancer treatment” (K-Gen, Inc., priority 2016, dated 2020).
Where two headings read alike, the source gives them in different places.

Columns and labels:
[1] = system: pancreatic, lung, colon and leukemia cancer cell lines; experiment: Proliferation assay, summary over the panel of cancer cell lines; format: cell-based; conditions: comparison with prostratin
Experimental: PKC activator compounds were tested in a panel of K-RAS mutant pancreatic, lung, and colon cancer cell lines, as well as a number of leukemia cell lines having either mutant K-RAS or N-RAS.
(§1) The dose range for most compounds was 4.6 nM-30 μM. The dose ranges for some compounds were adjusted downward to 0.46 nM-3 μM or 0.08 nM-0.5 μM or 0.03 nM-0.2 μM. […] The results are shown in Tables 3-6 for pancreatic cancer, lung cancer, colon/gastric cancer, and leukemia.

MiaPaCa-2 = experiment: Proliferation assay (CellTiter Glo); format: cell-based; conditions: 96 hours; for Top Inhibition %: % of top inhibition
AGS = experiment: Proliferation assay (CellTiter Glo); format: cell-based; conditions: 96 hours; for Top Inhibition %: % of top inhibition
Experimental: as §1

Pan2.13 = experiment: Proliferation assay (CellTiter Glo); format: cell-based; conditions: 96 hours; for Top Inhibition %: % of top inhibition
Experimental: as §1

SW620 = experiment: Proliferation assay (CellTiter Glo); format: cell-based; conditions: 96 hours; for Top Inhibition %: % of top inhibition
Experimental: as §1

LS180 = experiment: Proliferation assay (CellTiter Glo); format: cell-based; conditions: 96 hours; for Top Inhibition %: % of top inhibition
Experimental: as §1

Colo205 = experiment: Proliferation assay (CellTiter Glo); format: cell-based; conditions: Colo205 (RAS WT); 96 hours
H838 = experiment: Proliferation assay (CellTiter Glo); format: cell-based; conditions: H838 (RAS WT); 96 hours
H1915 = experiment: Proliferation assay (CellTiter Glo); format: cell-based; conditions: H1915 (RAS WT); 96 hours
SW900 = experiment: Proliferation assay (CellTiter Glo); format: cell-based; conditions: SW900 (K-RAS: G12V); 96 hours
HT29 = experiment: Proliferation assay (CellTiter Glo); format: cell-based; conditions: HT29 (RAS WT); 96 hours
RPMI8226 = experiment: Proliferation assay (CellTiter Glo); format: cell-based; conditions: RPM18226; 96 hours
BxPC-3 = experiment: Proliferation assay (CellTiter Glo); format: cell-based; conditions: BxPC-3 (RAS WT); 96 hours
[2] = system: Mino (Mantle cell lymphoma); experiment: Combination viability/proliferation assays; conditions: Homo sapiens, MINO, read-out: inhibition on proliferation, alone
Experimental: Briefly, cells at density of 1,000-10,000 cells/well in 96-well plates or 200-1600 cells/well in 384-well plates were seeded and incubated at 37° C. for 24 hours before addition of compounds. A series of 9 different concentrations of compound stocks (500×) were prepared by 3-fold serial dilutions in DMSO. […] After 96 hours of incubation, 35 μL or 50 μL of CellTiter Glo reagent (Promega) was added to each well and luminescence was measured after 10 minutes using EnVision (PerkinElmer). Luminescence from cells treated with DMSO alone was set as Max and % of inhibition was calculated as follows: Inhibition %=(Max-Sample value)/Max*100. Data were analyzed using XLfit software (ID Business Solutions Ltd.) or GraphPad software and IC50, relative IC50, and % of top inhibition were calculated.
Various drugs or compounds (Table 10) were screened and assayed in 384-well plates as 9-point 3-fold dilution series alone and in combination with 2-3 doses of the specified PKC activator compounds (e.g., K101A, K101E, and K102). The top concentration for the tested PKC activator compound was set at roughly the IC50 when the same testing compound was used as a single agent assayed in the same cell line. The next dose was either 3-fold or 10-fold dilution from the top concentration.
The PKC activating agents (e.g., K101A, K101E, and K102) in combination with other chemotherapeutic agents, including standard chemotherapies and certain chemotherapeutic agents targeting certain cell signaling pathways, were also examined on cancer cells other than lung cancer cells.

[3] = system: A549 lung cancer cell line; experiment: Combination viability/proliferation assays (384-well IC50 ratio, 96-well MacSynergy II); format: cell-based; conditions: PKC activator compounds (K101A, K101E, K102)
[4] = Homo sapiens, MIA PaCa-2, MiaPaCa-2 (K-RAS: G12C), absolute EC50, read-out: Ab EC50
[5] = Homo sapiens, MIA PaCa-2, MiaPaCa-2, relative EC50, read-out: Re EC50
[6] = Homo sapiens, AGS (gastric, K-RAS: G12D), absolute EC50, read-out: Ab EC50
[7] = Homo sapiens, AGS, relative EC50, read-out: Re EC50
[8] = Pan2.13 (K-RAS: Q61H), absolute EC50, read-out: Ab EC50
[9] = Pan2.13, relative EC50, read-out: Re EC50
[10] = Homo sapiens, SW-620, SW620 (K-RAS: G12V), absolute EC50, read-out: Ab EC50
[11] = Homo sapiens, LS180 (K-RAS: G12D), absolute EC50, read-out: Ab EC50

| SMILES | EC50 (MiaPaCa-2; [4]) | EC50 (MiaPaCa-2; [5]) | Top Inhibition % (MiaPaCa-2; MiaPaCa-2) | Top Inhibition % (AGS; AGS) | EC50 (AGS; [6]) | EC50 (AGS; [7]) | EC50 (Pan2.13; [8]) | Top Inhibition % (Pan2.13; Pan2.13) | EC50 (Pan2.13; [9]) | EC50 (SW620; [10]) | Top Inhibition % (SW620; SW620) | EC50 (LS180; [11]) | Top Inhibition % (LS180; LS180) | Top Inhibition % (Colo205) | Top Inhibition % (H838) | Top Inhibition % (H1915) | Top Inhibition % (SW900) | Top Inhibition % (HT29) | Top Inhibition % (RPMI8226) | Top Inhibition % (BxPC-3) | other results |
| --- | --- | --- | --- | --- | --- | --- | --- | --- | --- | --- | --- | --- | --- | --- | --- | --- | --- | --- | --- | --- | --- |
| CCCCCCCCCCCCCC(=O)O[C@@H]1[C@@H](C)[C@@]2(O)[C@@H](C=C(CO)C[C@]3(O)C(=O)C(C)=C[C@@H]23)[C@@H]2C(C)(C)[C@]12OC(C)=O [Compound K103, 12-O-Tetradecanoylphorbol-13-acetate] | 0.00028 µM | 0.00024 µM | 81.1% | 47.2% | > 0.5 µM | 0.0011 µM | > 0.5 µM | 41.9% | 0.00066 µM | > 10 µM | 1.2% | > 10 µM | 14.7% | 86.8% | 15.5% | 27.9% | 18.7% | 20.9% | 32.75% | 44.46% | potency in proliferation inhibition relative to prostratin [1]: more potent |
| CC(=O)OCC1=CC2C3C(C)(C)C3(OC(C)=O)CC(C)C2(O)C2C=C(C)C(=O)C2(O)C1 (stereo not shown) [Compound K101E] |  |  | 61.4% | 25.9% |  |  | > 0.2 µM | 49.8% | 0.044 µM |  | 0.0% |  | 1.3% | 85.8% | 26.8% | 35.6% | 25.4% | 31.7% | 32.25% | 38.87% | EC50 (MiaPaCa-2; MiaPaCa-2 (K-RAS: G12C), absolute EC50, read-out: Ab EC50): 1.88 µM; EC50 (MiaPaCa-2; MiaPaCa-2, relative EC50, read-out: Re EC50): 0.86 µM; EC50 (AGS; AGS (gastric, K-RAS: G12D), absolute EC50, read-out: Ab EC50): > 30 µM; EC50 (AGS; AGS, relative EC50, read-out: Re EC50): 4.38 µM; EC50 (SW620; SW620 (K-RAS: G12V), absolute EC50, read-out: Ab EC50): > 30 µM; EC50 (LS180; LS180 (K-RAS: G12D), absolute EC50, read-out: Ab EC50): > 30 µM |
| C/C=C(/C)C(=O)O[C@H]1C(C)=C[C@]23C(=O)[C@@H](C=C(CO)[C@@H](O)[C@]12O)[C@H]1[C@@H](C[C@H]3C)C1(C)C [Compound K102, ingenol-3-angelate] | 0.013 µM | 0.009 µM | 79.3% | 42.9% | > 3 µM | 0.012 µM | 0.0039 µM | 51.7% | 0.0012 µM | > 30 µM | 0.0% | > 30 µM | 9.3% | 86.0% | 25.5% | 30.8% | 20.1% | 17.3% | 27.06% | 44.13% | potency in proliferation inhibition relative to prostratin [1]: more potent; inhibition at 0.001 µM [2]: < 10% |
| CC(=O)O[C@H]1C(=O)[C@@]2(C)[C@H]([C@H](OC(=O)c3ccccc3)[C@]3(O)C[C@H](OC(=O)[C@H](O)[C@@H](NC(=O)c4ccccc4)c4ccccc4)C(C)=C1C3(C)C)[C@]1(OC(C)=O)CO[C@@H]1C[C@@H]2O [Paclitaxel] | 0.0034 µM | 0.0033 µM |  | 87.7% | 0.0047 µM | 0.0039 µM | 0.065 µM | 53.2% | 0.0027 µM | 0.012 µM | 92.1% | 0.014 µM | 67.1% | 97.4% | 96.5% | 80.6% | 81.0% | 93.8% | 98.98% | 91.93% | EC50 (SW620; Homo sapiens, SW-620, SW620, relative EC50, read-out: Re EC50): 0.0094 µM; EC50 (LS180; Homo sapiens, LS180, relative EC50, read-out: Re EC50): 0.0088 µM; effect in combination with the PKC activator compounds in inhibiting the growth of A549 cells [3]: insignificant synergism or antagonism |
| CC(=O)O[C@@]12C[C@@H](C)[C@@]3(O)[C@@H](C=C(CO)C[C@]4(O)C(=O)C(C)=C[C@@H]34)[C@@H]1C2(C)C [Compound K101A, 12-deoxyphorbol 13-acetate] | 0.3 µM | 0.18 µM | 74.4% | 21.7% | > 30 µM | 0.49 µM | > 30 µM | 43.4% | 0.017 µM | > 30 µM | 0.0% | > 30 µM | 4.4% | 83.6% | 10.1% | 27.7% | 7.1% | 12.8% | 32.39% | 40.11% | inhibition at 0.1 µM [2]: < 10% |
